{"source": "patent US20080039522A1", "about": "“Composition Containing a Complex Comprising a Metal Ion and a Carboxylate Ligand Having Anti-Inflammatory Activity” (Medical Therapies Limited, priority 2004, published 2008)", "key": {"Sprague-Dawley rats [1]": {"test_system": "Sprague-Dawley rats", "test": "Acute gastric ulceration after oral administration", "format": "in vivo, rat", "settings": "for gastric ulceration: 10 mg kg^−1 dose of Indo", "protocol": "Gastrointestinal Ulceration: To assess gastric damage, rats (n=4 per group) were fasted overnight with free access to water prior to the oral administration (non-anaesthetized) of the Test Samples or Test Compositions via oral gavage. The controls were dosed with CMC (2%) solution. Three hours after dosing, the rats were euthanised and the stomach was excised and opened by incision along the greater curvature. The stomach was rinsed, submerged in 10% formaldehyde for 1 h and examined to determine the extent of macroscopic gastric damage.\n(§1) The total volume of the MCT or carbopol paste compositions administered per dose in the assessment of gastrointestinal ulceration was no more than 0.5 g.\nIn order to illustrate the adverse effects of decomposition of the copper complex in the formulation, the gastric toxicity of IndoH, Cu-acetate, a physical mixture of Cu-acetate and IndoH and [Cu2(Indo)4(DMF)2] were tested at equivalent doses of Indo (10 mg kg^−1) and/or Cu in the MCT paste or a 2% (w/v) aqueous solution of carboxymethylcellulose (CMC). The MCT paste formulations were prepared as described in Example 3 but using IndoH, Cu-acetate, a physical mixture of Cu-acetate and IndoH, or [Cu2(Indo)4(DMF)2] instead of [Cu2(Indo)4(OH2)2]. The gastric toxicity was tested as described above. The results of these experiments are illustrated in FIG. 3.\nIn further experiments designed to test the toxicity of solutions of the Cu complex, the [Cu2(Indo)4(DMF)2] complex was dissolved in DMF and gastric toxicities were assessed. […] Similar results would be expected using other complexes, including [Cu2(Indo)4(OH2)2], in a non-colloidal solution."}, "Sprague-Dawley rats [2]": {"test_system": "Sprague-Dawley rats", "test": "Small intestine ulceration after oral administration", "format": "in vivo, rat", "settings": "rats fed, oral gavage, 24 h after dosing, IndoH 10 mg kg^−1, complexes 11 mg kg^−1, mean ± sem", "protocol": "The rats were orally administered (non-anaesthetized) the Test Samples or Test Compositions via oral gavage. The controls were dosed with CMC (2%) solution.\nas §1"}, "Sprague-Dawley rats [3]": {"test_system": "Sprague-Dawley rats", "test": "Anti-inflammatory activity (rat paw oedema) of topical creams", "format": "in vivo", "settings": "topical emulsifying cream", "protocol": "All rat experiments were performed as outlined in Example 7, except for the following changes. In Vivo Anti-inflammatory Activity and Gastric Toxicity. For topical administration, rats were treated with test compositions containing [Cu2(Indo)4(OH2)2] (“CuIndo”), [Zn(Indo)2(OH2)2] (“ZnIndo”), IndoH, or an equivalent Indo and Cu dose of a physical mixture of [Cu2(OAc)4(OH2)2] and IndoH thoroughly mixed in an emulsifying cream (see below). An amount of 0.2 g of the composition was applied to the right hind paw of each animal and gently massaged in for 1 minute at three-hourly intervals. Inflammation was induced at the final topical application with an injection of carrageenan (0.1 mL, 1% w/v in isotonic saline) into the plantar region of the hind paw. The composition for topical application was a composition comprising 0.5-2% w/w of Indo delivered as [Cu2(Indo)4(OH2)2] (“CuIndo”), [Zn(Indo)2(OH2)2] (“ZuIndo”), IndoH or an equivalent Indo and Cu dose of a physical mixture of [Cu2(OAc)4(OH2)2] and IndoH in an emulsifying cream, the emulsifying cream consisting of: […]"}, "Sprague-Dawley rats [4]": {"test_system": "Sprague-Dawley rats", "test": "Inhibition of carrageenan-induced paw edema, oral administration", "format": "in vivo, rat", "settings": "for percent inhibition in rat hind-paw diameter change, 3-hr / percent inhibition in rat hind-paw diameter change, 5-hr: oral, IndoH 10 mg kg^−1, complex 11 mg kg^−1, mean(sem); for percent inhibition in rat hind-paw diameter change, 3-hr: 3 h post carrageenan; for percent inhibition in rat hind-paw diameter change, 5-hr: 5 h post carrageenan", "protocol": "Inhibition of Carrageenan-Induced Paw Edema: Rats were orally administered (non-anaesthetized) the Test Samples or Test Compositions via oral gavage. The control cohort was dosed solely with CMC (2%) solution. […] Exp. Ther. 1965, 150, 165-171). The thickness of the paw was measured at the ventral dorsal footpad using digital calipers prior to dosing and at 3 and 5 h after carrageenan injection. The change in the measured parameter (ΔP) for thickness of paw (Δmm) at n=3- and 5-hours after carrageenan injection is given by: ΔP=Pt=n-Pt=0 (I) The percent inhibition (% inhibition) at 3- or 5-hours in the measured parameter (P) due to the treatment is given as the difference between the % increase in the value of P in the control group and the treatment group at n=3- or 5-hours, with the % increase in the value of P given by: […]"}, "Sprague-Dawley rats [5]": {"test_system": "Sprague-Dawley rats", "test": "Gastric toxicity after subcutaneous or intramuscular injection", "settings": "rat, in vivo, 4 h", "protocol": "(§2) In Vivo Anti-inflammatory Activity and Gastric Toxicity. Groups of four rats were used for all studies. All doses were calculated as equivalent concentrations of Indo. […] For subcutaneous and intramuscular administration, rats were injected with 125-200 μL volumes of the test compositions (IndoH or [Cu2(Indo)4(OH2)2] in MCT oil). The control cohort was injected with equivalent volumes of neat MCT. Subcutaneous injections were made in the lower dorsal surface and intramuscular injections were made in the right hind thigh muscle. Inflammation was induced 1 h after dosing by injection of the formulation by an injection of carrageenan (0.1 mL, 1% w/v in isotonic saline) into the plantar region of the hind paw.\n(§3) Paw volume was measured prior to dosing and at 3 h after carrageenan injection by immersing the left hind paw (to the lateral malleus) into a vessel filled with water as described in Example 5. Immediately after paw volume measurements, 24 h-fasted animals were euthanised and the stomach was excised and opened by incision along the greater curvature."}, "Sprague-Dawley rats [6]": {"test_system": "Sprague-Dawley rats", "test": "Observation of the site of the subcutaneous injection", "format": "in vivo, rat", "settings": "rat, in vivo, sc", "protocol": "as §2"}, "Sprague-Dawley rats [7]": {"test_system": "Sprague-Dawley rats", "test": "Small intestinal toxicity of topical creams", "settings": "rat, in vivo", "protocol": "In Vivo Small Intestinal Toxicity.\nAll rat experiments were performed as outlined in Example 7, except for the following changes.\nIn Vivo Anti-inflammatory Activity and Gastric Toxicity. For topical administration, rats were treated with test compositions containing [Cu2(Indo)4(OH2)2] (“CuIndo”), [Zn(Indo)2(OH2)2] (“ZnIndo”), IndoH, or an equivalent Indo and Cu dose of a physical mixture of [Cu2(OAc)4(OH2)2] and IndoH thoroughly mixed in an emulsifying cream (see below). An amount of 0.2 g of the composition was applied to the right hind paw of each animal and gently massaged in for 1 minute at three-hourly intervals. Inflammation was induced at the final topical application with an injection of carrageenan (0.1 mL, 1% w/v in isotonic saline) into the plantar region of the hind paw."}, "Sprague-Dawley rats [8]": {"test_system": "Sprague-Dawley rats", "test": "Anti-inflammatory activity (rat paw oedema) after subcutaneous or intramuscular injection", "format": "in vivo", "protocol": "as §2, §3"}}, "note": "Values joined by “and” are separate entries in the source; they are usually repeats but may differ in a detail not shown here. Equal entries are not always repeated.", "data": [{"smiles": "CN(C)C=O.CN(C)C=O.COc1ccc2c(c1)c(CC(=O)[O-])c(C)n2C(=O)c1ccc(Cl)cc1.COc1ccc2c(c1)c(CC(=O)[O-])c(C)n2C(=O)c1ccc(Cl)cc1.COc1ccc2c(c1)c(CC(=O)[O-])c(C)n2C(=O)c1ccc(Cl)cc1.COc1ccc2c(c1)c(CC(=O)[O-])c(C)n2C(=O)c1ccc(Cl)cc1.[Cu+2].[Cu+2]", "note": "[[Cu2(Indo)4(DMF)2], bis(N,N-dimethylformamide)tetrakis-μ-(O,O′-Indo)dicopper(II)]", "values": [{"measurement": "gastric ulceration", "setting": "Sprague-Dawley rats [1]; complex dissolved in DMF alone", "value": "> 200", "unit": "mm^2"}, {"measurement": "gastric ulceration", "setting": "Sprague-Dawley rats [1]; complex in DMF containing 2% CMC", "value": 100, "unit": "mm^2"}, {"measurement": "gastric damage in 0.5 mL MCT paste compared with 0.5 mL of 2% (w/v) CMC solution", "setting": "Sprague-Dawley rats [1]; oral, equivalent doses of Indo (10 mg kg^−1) and/or Cu, FIG. 3", "value": "less GI toxicity for the MCT formulation compared to the CMC formulation"}, {"measurement": "gastric ulcerations compared to the control", "setting": "Sprague-Dawley rats [1]; oral, equivalent doses of Indo (10 mg kg^−1) and/or Cu, [Cu2(Indo)4(DMF)2] in MCT paste, Cu-acetate in CMC solution or MCT paste, FIG. 3", "value": "no significant gastric ulcerations"}, {"measurement": "Gastric ulceration (mm^2)", "setting": "Sprague-Dawley rats [1]; rats fasted overnight, oral gavage, 3 h after dosing, IndoH 10 mg kg^−1, complexes 11 mg kg^−1, mean ± sem, listed as Sample M", "value": "49±7 mm^2 and 49.0±6.7 mm^2"}, {"measurement": "Small intestine ulceration (mm^2)", "setting": "Sprague-Dawley rats [2]; listed as Sample M", "value": "8.7±2.9", "unit": "mm^2"}]}, {"smiles": "COc1ccc2c(c1)c(CC(=O)[O-])c(C)n2C(=O)c1ccc(Cl)cc1.COc1ccc2c(c1)c(CC(=O)[O-])c(C)n2C(=O)c1ccc(Cl)cc1.O.O.[Zn+2]", "note": "[ZnIndo, [Zn(Indo)2(OH2)2]]", "values": [{"measurement": "Efficacy (% inhib)", "setting": "Sprague-Dawley rats [3]; conc. 0.5 % equiv of Indo", "value": 29, "unit": "% inhib"}, {"measurement": "Efficacy (% inhib)", "setting": "Sprague-Dawley rats [3]; conc. 1 % equiv of Indo", "value": 41, "unit": "% inhib"}]}, {"smiles": "COc1ccc2c(c1)c(CC(=O)O)c(C)n2C(=O)c1ccc(Cl)cc1", "note": "[IndoH, 1-(4-chlorobenzoyl)-5-methoxy-2-methyl-1H-indole-3-acetic acid]", "values": [{"measurement": "ED50", "setting": "Sprague-Dawley rats [4]; delivered in CMC", "value": "2.8 ± 1.7", "unit": "mg/kg"}, {"measurement": "ED50", "setting": "Sprague-Dawley rats [4]; delivered in MCT paste", "value": 1, "unit": "mg/kg"}, {"measurement": "percent inhibition in rat hind-paw diameter change, 3-hr", "setting": "Sprague-Dawley rats [4]", "value": "21(8) %"}, {"measurement": "percent inhibition in rat hind-paw diameter change, 3-hr", "setting": "Sprague-Dawley rats [4]; listed as Indomethacin", "value": "21(8)%"}, {"measurement": "percent inhibition in rat hind-paw diameter change, 5-hr", "setting": "Sprague-Dawley rats [4]", "value": "25(6) %"}, {"measurement": "percent inhibition in rat hind-paw diameter change, 5-hr", "setting": "Sprague-Dawley rats [4]; listed as Indomethacin", "value": "25(6)%"}, {"measurement": "Gastric ulcers (mm^2)", "setting": "Sprague-Dawley rats [5]; 5 mg/kg", "value": "1, 0, 1, 2 mm^2"}, {"measurement": "Gastric ulcers (mm^2)", "setting": "Sprague-Dawley rats [5]; 10 mg/kg", "value": "12, 3, 8, 20 mm^2"}, {"measurement": "adverse effect at the site of the injection", "setting": "Sprague-Dawley rats [6]", "value": "None of the rats exhibited soreness, swelling, redness or any other adverse effect"}, {"measurement": "intestinal bleeding", "setting": "Sprague-Dawley rats [7]", "value": "^bOvert intestinal bleeding."}, {"measurement": "Efficacy (% inhib)", "setting": "Sprague-Dawley rats [3]; conc. 0.5 % equiv of Indo", "value": 18.6, "unit": "% inhib"}, {"measurement": "Efficacy (% inhib)", "setting": "Sprague-Dawley rats [3]; conc. 0.75 % equiv of Indo", "value": 60.8, "unit": "% inhib"}, {"measurement": "Efficacy (% inhib)", "setting": "Sprague-Dawley rats [3]; conc. 1 % equiv of Indo", "value": 35, "unit": "% inhib"}, {"measurement": "Efficacy (% inhib)", "setting": "Sprague-Dawley rats [3]; conc. 2 % equiv of Indo", "value": 42, "unit": "% inhib"}, {"measurement": "Percent inhibition", "setting": "Sprague-Dawley rats [8]; intramuscular, fasting rats, 5 mg/kg equivalent dose of Indo", "value": 38.7, "unit": "%"}, {"measurement": "Percent inhibition", "setting": "Sprague-Dawley rats [8]; intramuscular, fasting rats, 10 mg/kg equivalent dose of Indo", "value": 49.4, "unit": "%"}, {"measurement": "Percent inhibition", "setting": "Sprague-Dawley rats [8]; subcutaneous, 7.5 mg/kg of Indo, non-fasting", "value": 34, "unit": "%"}, {"measurement": "Small intestine ulceration (mm^2)", "setting": "Sprague-Dawley rats [2]; listed as Sample I", "value": "177.0±4.4", "unit": "mm^2"}]}]}
